Results: article PMC6009892, “A novel series of pyrazole-platinum(II) complexes as potential anti-cancer agents that induce cell cycle arrest and apoptosis in breast cancer cells” (Journal of Enzyme Inhibition and Medicinal Chemistry, 2018)
Read-outs that look alike come from different tables or passages of the source.

Experiments:
Format in all cases: cell-based, human
[1] = tested on: MCF-7 breast cancer cells; experiment: MTT cell viability assay, MCF-7; settings: 5-50 μM, read-out: IC50 (cell viability, MTT)
Protocol: (§1) MCF-7, MDA-MB-231 (both human breast cancer cell lines), and fibroblast cells were obtained from American Type Culture Collection (ATCC, Manassas, VA, USA). DMEM and FBS used in a cell culture were from Gibco (USA). Glutamine, penicillin, and streptomycin were obtained from Quality Biologicals Inc. (USA). DMEM media was blended with 50 units/ml of penicillin, 50 μg/ml of streptomycin, 10% of FBS. All cell lines were cultured in 5% CO2 and fully humidified at 37 °C. Cells were cultured in Costar flasks and sub-confluent cells were detached with 0.05% trypsin and 0.02% ethylenediaminetetraacetic acid in calcium-free phosphate-buffered saline (PBS), counted in hemocytometers, and plated at 5 × 10^5 cells/well of six-well plates (Thermo Scientific, New York, NY, USA) in 2 ml of growth medium (DMEM without phenol red with 10% CPSR1). Cells reached about 80% of confluency at day 2, and in most cases such cells were used for the assays.
(§2) The viability of cultured cells was decided through assaying the reduction of MTT to formazan. In brief, MCF-7, MDA-MB-231, and fibroblast cells line were seeded at an initial density of 1 × 10^5 cells per well. Then, the cells were incubated at 37 °C for 24 h. Subsequently, cultured cells were treated with a medium containing concentrations (5, 10, 20, 30, 40, and 50 μM) of PtPz1–PtPz6 for 24 h and 48 h. After the incubation period, MTT was added into all wells in the final concentration of 0.5 mg/ml. After that, the cells were incubated at 37 °C for 4 h. Then, by removing the medium, 200 μl of DMSO was added to all wells. As a result, insoluble formazan was dissolved in DMSO (0.5%). At 570 nm (630 nm as a reference), the absorbance was measured in an Evolution 201 reader (Thermo Scientific, Waltham, MA).

[2] = tested on: MDA-MB-231 breast cancer cells; experiment: MTT cell viability assay, MDA-MB-231; settings: 5-50 μM, read-out: IC50 (cell viability, MTT)
Protocol: as §1, §2

fibroblast cells = experiment: MTT cell viability assay, fibroblasts; settings: 5-50 μM, read-out: IC50 (cell viability, MTT)
Protocol: as §1, §2

[3] = tested on: MCF-7 breast cancer cells; experiment: DNA fragmentation TUNEL assay, MCF-7; settings: MCF-7, 20 μM, 24 h; control 4.0%
Protocol: (§3) DNA fragmentation associated with apoptosis was examined by the terminal deoxynucleotidyltransferase (TdT)- mediated dUTP nick end labeling (TUNEL) method using a commercial assay kit (APO-Direct Kit; BD Pharmingen, San Diego, CA). After treatment, the cells were fixed with 1% paraformaldehyde in PBS (4°C, 30 min), washed in PBS, and permeabilised with ice-cold 70% ethanol. The APO-Direct Kit TUNEL assay was performed as described by the manufacturer. Briefly, the fixed cells were washed twice using the kit wash buffer, and after centrifugation the supernatant was discarded. The DNA labeling solution (containing TdT enzyme and FITC-dUTP) was added to the cell pellet, and the re-suspended mixture was incubated for 1 h at 37°C with occasional shaking. At the end of incubation time, rinse buffer was added, and after centrifugation the supernatant was discarded. We repeated the cell rinsing with rinse buffer, and then suspended the cell pellet in PI/RNase staining buffer. Cells were incubated at room temperature for 30 min and immediately analysed in a BD FACSCanto II flow cytometer. In total, 10,000 events were collected per test sample. The results were analysed with FACSDiva software (both from BD Biosciences Systems, San Jose, CA). The percentage of cells with distinctive apoptotic DNA strand breaks and distinguished by green fluorescent emission was calculated.

[4] = tested on: MDA-MB-231 breast cancer cells; experiment: DNA fragmentation TUNEL assay, MDA-MB-231; settings: MDA-MB-231, 20 μM, 24 h
Protocol: as §3

[5] = tested on: caspase-3 in MDA-MB-231 breast cancer cells; experiment: FLICA caspase-3 activity, flow cytometry, MDA-MB-231; settings: MDA-MB-231, 20 μM, 24 h
Protocol: (§4) Caspase-3 activity was measured using the FLICA Caspase 3 Assay Kit (ImmunoChemistry Technologies, Bloomington, MN, USA), according to the manufacturer’s instructions. Briefly, cultured MDA-MB-231 breast cancer cells (1 × 10^6) were washed with cold PBS twice and re-suspended in buffer. We added 5 µl of diluted FLICA reagent and 2 µl of Hoechst 33342 to 93 µl of cell suspension and mixed by pipetting. The cells were incubated for 60 min at 37°C. After incubation, the cells were washed twice in 400 µl of apoptosis wash buffer and centrifuged at 300 × g. After the last wash, we re-suspended the cells in 100 µl of apoptosis wash buffer supplemented with 10 µg/ml PI. Analysis was performed using the BD FACSCanto II flow cytometer, and the results were analysed with FACSDiva software (both from BD Biosciences Systems, San Jose, CA).

[6] = tested on: caspase-8 in MCF-7 breast cancer cells; experiment: FLICA caspase-8 activity, flow cytometry, MCF-7; settings: MCF-7, 20 μM, 24 h
Protocol: as §4, with “Caspase-8 activity” for “Caspase-3 activity”, “Caspase 8” for “Caspase 3”, “cultured MCF-7 and” for “cultured”

[7] = tested on: caspase-8 in MDA-MB-231 breast cancer cells; experiment: FLICA caspase-8 activity, flow cytometry, MDA-MB-231; settings: MDA-MB-231, 20 μM, 24 h
Protocol: as §4, with “Caspase-8 activity” for “Caspase-3 activity”, “Caspase 8” for “Caspase 3”, “cultured MCF-7 and” for “cultured”

[8] = tested on: caspase-9 in MCF-7 breast cancer cells; experiment: FLICA caspase-9 activity, flow cytometry, MCF-7; settings: MCF-7, 20 μM, 24 h
Protocol: as §4, with “Caspase-9 activity” for “Caspase-3 activity”, “Caspase 9” for “Caspase 3”, “cultured MCF-7 and” for “cultured”, “re-suspended” for “re-suspended the”

[9] = tested on: caspase-9 in MDA-MB-231 breast cancer cells; experiment: FLICA caspase-9 activity, flow cytometry, MDA-MB-231; settings: MDA-MB-231, 20 μM, 24 h
Protocol: as §4, with “Caspase-9 activity” for “Caspase-3 activity”, “Caspase 9” for “Caspase 3”, “cultured MCF-7 and” for “cultured”, “re-suspended” for “re-suspended the”

[Pt2(pyrazole)4(berenil)2]·4HCl·2H2O [PtPz4]
IC50 ([1]; MCF-7, 24 h incubation): 32 ± 2 µM
IC50 ([1]; MCF-7, 48 h incubation): 29 ± 2 µM
IC50 ([2]; MDA-MB-231, 24 h incubation): 33 ± 3 µM
IC50 ([2]; MDA-MB-231, 48 h incubation): 29 ± 2 µM
IC50 (fibroblast cells; 24 h incubation): > 50 µM
IC50 (fibroblast cells; 48 h incubation): 46 ± 2 µM
percent of TUNEL positive cells [3]: 29.4%
percent of TUNEL positive cells [4]: 22.9%
percent of cells with active caspase-3 [5]: 14.8%
percent of cells with active caspase-8 [6]: 30.9%
percent of cells with active caspase-8 [7]: 29.5%
percent of cells with active caspase-9 [8]: 29.7%
percent of cells with active caspase-9 [9]: 29.6%
